Where a name gives a salt, the structure may show the parent alone. Read-outs that look alike come from different tables or passages of the source.
Tests used:
[1] = tested on: NCI-H146 cells (human small-cell lung cancer cell lines); experiment: Cell-growth inhibition test: NCI-H146 cells; type: cell-based; conditions: read-out: Cell-Growth Inhibition Test: NCI-H146 Cells IC50
Outline: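 NCI-H146 small-cell lung cancer cells were cultured with compound or DMSO for 10 days at 37°C, 5% CO2. Viability read by CellTiter-Glo luminescence; growth rate (%) = treated/DMSO luminescence × 100.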

[2] = tested on: HEL cells (human acute myelocytic leukemia cell lines); conditions: read-out: Cell-Growth Inhibition Test: HEL Cells IC50;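 further: viable cell count by CellTiter-Glo 2.0 luminescence after 5 days of culture at 37 °C, growth expressed relative to DMSO-only wells as 100%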
Description: (§1) Under the following conditions, an in vitro cell-growth inhibition test was performed with respect to HEL cells (human acute myelocytic leukemia cell lines), NCI-H1417 cells (human small-cell lung cancer cell lines), and NCI-H146 cells (human small-cell lung cancer cell lines).
(§2) The cells with the compound of the present invention or with dimethylsulfoxide alone were cultured at 37° C. in a 5% carbon-dioxide-containing incubator for 5 days (HEL cells) or 10 days (NCI-H1417 cells and NCI-H146 cells). After culture, the plate was allowed to stand at room temperature for 30 minutes, and 100 μL of the supernatant was removed from each well to leave 100 μL of the cell culture solution. To each well containing the remaining 100 μL of the cell culture solution, the same amount of CellTiter-Glo 2.0 Assay (Promega, Cat #: G9242) was added. The microplate was shaken with a plate mixer for 1 minute and then allowed to stand in a dark place for 10 minutes. Thereafter, the luminescence intensity of viable cells in each well was measured using a microplate reader (PerkinElmer, EnSpire). […] Cell growth rate (%)=T/C×100 T: The luminescence intensity in a well to which the compound of the present invention was added (count per second) C: The luminescence intensity in a well to which dimethylsulfoxide alone was added (count per second)

[3] = tested on: NCI-H1417 cells (human small-cell lung cancer cell lines); conditions: read-out: Cell-Growth Inhibition Test: NCI-H1417 Cells IC50;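 further: growth of NCI-H1417 cells over 10 days at 37 °C, read as viable-cell luminescence by CellTiter-Glo 2.0, expressed as % of DMSO-only control wells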
human LSD1 protein = target: T1, human LSD1 protein (Homo sapiens, UniProt O60341); experiment: Measurement of LSD1 inhibitory activity (in vitro); type: biochemical
T1 construct: purchased Abcam ab80379
Description: To measure the inhibitory activity, first, the compound of the present invention was serially diluted in dimethylsulfoxide (DMSO). Sequentially, the solution of the compound of the present invention in DMSO (final concentration of DMSO: 5%) and human LSD1 protein (Abcam, ab80379) were added to a reaction buffer (25 mM Tris-HCl (pH 7.5), 50 mM KCl, 2 mM CHAPS, 1 mM DTT, 0.02% BSA). The mixture was preincubated at 25° C. for 30 minutes. […] Tranylcypromine (final concentration: 3 mM) was then added thereto to terminate the reaction.

[4] = tested on: HEL cells (human acute myelocytic leukemia cell lines); experiment: cells; conditions: read-out: Cell-Growth Inhibition Test: HEL Cells IC50 (nM);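 further: viable cell count by CellTiter-Glo 2.0 luminescence after 5 days of culture at 37 °C, growth expressed relative to DMSO-only wells as 100%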
Description: as §1, §2

[5] = tested on: NCI-H1417 cells (human small-cell lung cancer cell lines); experiment: cells; conditions: NCI-H1417, read-out: Cell-Growth Inhibition Test: NCI-H1417 Cells IC50 (nM);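 further: growth of NCI-H1417 cells over 10 days at 37 °C, read as viable-cell luminescence by CellTiter-Glo 2.0, expressed as % of DMSO-only control wells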

Row | Molecule | IC50 ([1]; NCI-H146 cells) [nM] | IC50 [2] [nM] | IC50 [3] [nM] | IC50 (human LSD1 protein) [nM] | IC50 ([1]; Homo sapiens, NCI-H146) [nM] | IC50 [4] [nM] | IC50 [5] [nM]
1 | Cc1c(F)c(-c2ccc(C(=O)N3[C@@H]4CC[C@H]3[C@@H](N)C4)cc2-c2ccc(C#N)c(F)c2)cc2nnn(CC3(O)CCC3)c12 (single isomer, unassigned) [Example 270] | 0.37 | 0.26 | 0.18 |  |  |  | 
2 | 3-fluoro-2′-(6-fluoro-1-(2-hydroxy-2-methylpropyl)-1H-indazol-5-yl)-5′-(2,7-diazaspiro[3.4]octane-6-carbonyl)-[1,1′-biphenyl]-4-carbonitrile [Example 199] | 5.45 | 22 | 4.55 |  |  |  | 
3 | Cc1ccc(-c2ccc(CN3[C@H]4CC[C@@H]3[C@H](N)C4)cc2-c2ccc([N+](=O)[O-])cc2)cc1 (single isomer, unassigned) [Example 296, dihydrochloride] |  | 5.83 | 37.6 |  |  |  | 
4 | 2′-(6,7-difluoro-1-(2-hydroxy-2-methylpropyl)-1H-indol-5-yl)-3-fluoro-5′-(2,7-diazaspiro[3.4]octane-6-carbonyl)-[1,1′-biphenyl]-4-carbonitrile [Example 200] | 2.31 | 3.72 | 1.23 |  |  |  | 
5 | Cc1noc2cc(-c3ccc(C(=O)N4[C@@H]5CC[C@H]4C[C@@H](N)C5)cc3-c3ccc(C#N)c(F)c3)c(F)cc12 [Example 179, 5′-((3-endo)-3-amino-8-azabicyclo[3.2.1]octane-8-carbonyl)-3-fluoro-2′-(5-fluoro-3-methylbenzo[d]isoxazol-6-yl)-[1,1′-biphenyl]-4-carbonitrile] | 1.05 | 1.52 | 3.36 |  |  |  | 
6 | CC(C)(O)Cn1ncc2cc(-c3ccc(CN4[C@@H]5CC[C@H]4C[C@@H](N)C5)cc3-c3ccc(C#N)c(F)c3)c(F)cc21 [Example 299, 5′-((3-endo)-amino-8-azabicyclo[3.2.1]octan-8-yl)methyl)-3-fluoro-2′-(6-fluoro-1-(2-hydroxy-2-methylpropyl)-1H-indazol-5-yl)-[1,1′-biphenyl]-4-carbonitrile dihydrochloride] |  |  |  | 0.2 | < 1.37 | 0.43 | 0.949

— patent US11479563B2, “Biphenyl compound or salt thereof” (TAIHO PHARMACEUTICAL CO., LTD., priority 2017, dated 2022)
